Results taken from EP0818467B1, “Aligned peptide array and a rational and rapid method for the detection of a binding or interaction site of a protein by using the same” (NEC CORPORATION, priority 1996, dated 1998).

Key:
[1] = tested on: third peptide segment, in which one amino acid had been replaced; test: aligned peptide array membrane with one amino acid replaced in the third peptide segment, autoradiography; type: binding; conditions: formula (IV): G (glycine) in the third peptide segment replaced by E (glutamate)
Experimental: (§1) The aligned peptide array membrane was reacted with a phorbol ester labeled with tritium (^3H) and then brought into contact with a photographic film. Thus, the reaction spot was identified by autoradiography.
In the third peptide segment detected in Example 2, one amino acid was replaced as shown in the following formula (IV). Excepting this modification, detection was carried out in the same manner as in Example 2. [formula]

[2] = tested on: regulatory region of protein kinase C (PKC); test: aligned peptide array membrane reacted with tritium-labeled phorbol ester, autoradiography; type: binding; conditions: peptide segments of formula (III); phorbol ester labeled with tritium (3H)
Experimental: First of all, an amino acid sequence corresponding to a portion of the regulatory region of protein kinase C (PKC) was divided as shown in the following formula (III), and the corresponding peptide segments were synthesized. Then, an aligned peptide array membrane was prepared in the same manner as given in Example 1. [formula]
as §1

CCCCCCCCCCCCCC(=O)O[C@@H]1[C@@H](C)[C@@]2(O)[C@@H](C=C(CO)C[C@]3(O)C(=O)C(C)=C[C@@H]23)[C@@H]2C(C)(C)[C@]12OC(C)=O [phorbol ester]
exposure to radiation at the position of the peptide segment [1]: no exposure to radiation was observed at the position of the third peptide segment
exposure to radiation at the position of the peptide segment [2]: exposure to radiation was observed at the position of the peptide segment corresponding to the third sequence segment of formula (III)
